{
  "source": "paper PMC10571957",
  "about": "“αV-Integrin-Dependent Inhibition of Glioblastoma Cell Migration, Invasion and Vasculogenic Mimicry by the uPAcyclin Decapeptide” (Cancers, 2023)",
  "key": {"[1]": {"test_system": "breast cancer cell lines", "conditions": "ref Belli et al. [25]; cited from earlier work"}, "[2]": {"test_system": "U251-MG cells", "experiment": "Vasculogenic mimicry (tube formation on Geltrex), U251-MG", "type": "cell-based, human", "conditions": "24 h", "method": "The tube formation assay was performed in 96-well plates pre-coated with 50 µL/well of Geltrex^TM (Thermofisher, Scientific, Waltham, MA, USA), and polymerized for 30 min at 37 °C. Briefly, 3 × 10^4 U87-MG, 1.5 × 10^4 U251, and 1 × 10^4 C6 cells/100µL/well were plated onto Geltrex^TM and monitored at 37 °C for the indicated times. The specific effectors were included at time 0. The formation of vascular-like structures by Geltrex^TM-plated U87-MG and U251-MG cells was monitored for 24 h, whereas C6 cells were tested for 16 h. The evaluation of the branching point number, defined as the intersection of at least 3 tubes [24], was performed using the Inverted Microscope DMI Leica 6000 for the U87-MG and U251-MG cells and the Inverted Microscope Axiovert 25 for the C6 cells. At the indicated times, the number of “branching points” was assessed in 4/5 random fields using the ImageJ 1.52a Software.\nFigure 8 Vascular mimicry formation and VE-cadherin expression inhibited by uPAcyclin in U251-MG cells. […] (B) The quantitation of the branching point number is described in the legend to Figure 6B. […] The densitometric quantitation of VE-cadherin bands is shown (right panel) (* p-value < 0.05; *** p-value < 0.001)."}, "[3]": {"test_system": "U251-MG cells", "experiment": "Boyden chamber Matrigel invasion, U251-MG", "type": "cell-based, human", "conditions": "for invasion, % of basal, average 2 expts: mean of 2 expts; for invasion, % of basal, average expt 1: mean of expt 1; for invasion, % of basal, average expt 2: mean of expt 2; for invasion, % of basal, T-test list: single replicates of both expts", "method": "The migration and invasion assays were performed using Boyden chambers and 8 µm pore size PVP-free filters coated with 50 µg/mL of collagen type VI (Sigma), as previously described. For the invasion assays, collagen-coated filters were further coated with 50 µg/mL Matrigel^TM (Sigma). Briefly, 11 × 10^4 U87-MG, 4 × 10^4 U251-MG, or 4 × 10^4 U138-MG/sample were pre-treated for 40 min at 37 °C with the indicated effectors. Then, the cells were allowed to migrate for 3 h or to invade for 5 h at 37 °C toward 5% FBS in DMEM/0.1% BSA. At the end of both assays, the cells on the lower filter surface were fixed, stained with haematoxylin, and counted under an optical microscope (Zeiss Axiophot, Carl Zeiss, Milan, Italy) at 20× magnification. The migration and invasion experiments were conducted in triplicate for U87-MG and in duplicate for U251-MG and U138-MG. The migrated or invaded cells were reported as percentage of basal migration or invasion in the presence of DMEM/0.1% BSA, taken as 100%, and analyzed as reported in Section 2.11.\nFigure 4 Effect of uPAcyclin on matrix invasion of U87-MG, U251-MG, and U138-MG GBM cells. Quantitative analysis of U87-MG (A), U251-MG (B), and U138-MG (C) invasion. A total of 11 × 10^4 U87-MG or […] U251-MG or U138-MG/sample were pre-treated for 40 min at 37 °C with uPAcyclin (100 nM, 1 µM), anti-αV polyclonal (anti-αV-Pclonal) or monoclonal (anti-αV MoAb) antibody, or anti-actin polyclonal antibody (anti-actin), and then assayed in Boyden chambers at 37 °C, either for basal (BSA) or FBS-dependent invasion (5% FBS) for 5 h at 37 °C. Data are expressed as in the legend to Figure 3. Results are expressed as percentages with respect to the basal invasion, considered as 100% (* p-value < 0.05; ** p-value < 0.005; *** p-value < 0.001)."}, "[4]": {"conditions": "100 nM, 5% FBS, 5 h, expt 1, duplicates"}, "[5]": {"conditions": "100 nM, 5% FBS, 5 h, expt 2, duplicates"}, "[6]": {"conditions": "1 µM, 5% FBS, 5 h, expt 1, duplicates"}, "[7]": {"conditions": "1 µM, 5% FBS, 5 h, expt 2, duplicates"}},
  "note": "Where “and” joins values, the source holds several entries; their conditions need not be identical. Identical values can stand only once.",
  "data": [
    {"substance": "Ac-K^1P[ESPPEELK^10]-NH2 (sidechain bridge or staple) [uPAcyclin]", "values": [
      {"measurement": "migration and invasion inhibition", "setting": "[1]", "value": "potent inhibitor of migration and invasion of breast cancer cell lines"},
      {"measurement": "branching number per field decreased to", "setting": "[2]; 1 nM", "value": 20, "unit": "%"},
      {"measurement": "branching number per field decreased to", "setting": "[2]; 100 nM", "value": 15, "unit": "%"},
      {"measurement": "reduction in invasion", "setting": "[3]; 100 nM, U251-MG, 5% FBS, 5 h", "value": "50–60%"},
      {"measurement": "invaded cell number/field", "setting": "[3]; [4]", "value": 14, "unit": "cell number/field"},
      {"measurement": "invasion, % of basal", "setting": "[3]; [4]", "value": 156, "unit": "%"},
      {"measurement": "invaded cell number/field", "setting": "[3]; [5]", "value": "15 cell number/field and 14 cell number/field"},
      {"measurement": "invasion, % of basal", "setting": "[3]; [5]", "value": "136% and 127%"},
      {"measurement": "invasion, % of basal, average 2 expts", "setting": "[3]; 100 nM, 5% FBS, 5 h", "value": 144, "unit": "%"},
      {"measurement": "invasion, % of basal, average expt 1", "setting": "[3]; 100 nM, 5% FBS, 5 h", "value": 156, "unit": "%"},
      {"measurement": "invasion, % of basal, average expt 2", "setting": "[3]; 100 nM, 5% FBS, 5 h", "value": 132, "unit": "%"},
      {"measurement": "invasion, % of basal, T-test list", "setting": "[3]; 100 nM", "value": "156 and 136 and 127"},
      {"measurement": "invasion, in words", "setting": "[3]; 1 µM, U251-MG, 5% FBS, 5 h", "value": "reduced invasion to basal levels"},
      {"measurement": "invaded cell number/field", "setting": "[3]; [6]", "value": "11 cell number/field and 9 cell number/field"},
      {"measurement": "invasion, % of basal", "setting": "[3]; [6]", "value": "122% and 100%"},
      {"measurement": "invaded cell number/field", "setting": "[3]; [7]", "value": "12 cell number/field and 10 cell number/field"},
      {"measurement": "invasion, % of basal", "setting": "[3]; [7]", "value": "109% and 91%"},
      {"measurement": "invasion, % of basal, average 2 expts", "setting": "[3]; 1 µM, 5% FBS, 5 h", "value": 106, "unit": "%"},
      {"measurement": "invasion, % of basal, average expt 1", "setting": "[3]; 1 µM, 5% FBS, 5 h", "value": 111, "unit": "%"},
      {"measurement": "invasion, % of basal, average expt 2", "setting": "[3]; 1 µM, 5% FBS, 5 h", "value": 100, "unit": "%"},
      {"measurement": "invasion, % of basal, T-test list", "setting": "[3]; 1 µM", "value": "122 and 100 and 109 and 91"}
    ]}
  ]
}
